Data on 16 compounds can be found in patent publication US8754038B2, “Template-fixed peptidomimetics with CCR10 antagonistic activity” (priority 2009, dated 2014).

Each structure is given as a SMILES string. Numbered stars: 1 amine (or outer) side, 2 acyl side, 3 side chain; on linkers, the order of the positions; unused ones are H or OH. Square brackets hold non-standard residues; d marks the D form. Side chains are listed from the residue outwards. Peptide text beside a SMILES is read from it. * marks the point of attachment. X1 = O=C([C@@H]1C[C@@H](Cc2ccc(Br)cc2)CN1[*:1])[*:2]; Pro(4R-OPh) = O=C(O)[C@@H]1C[C@@H](Oc2ccccc2)CN1; Pro(4R-Bn) = O=C(O)[C@@H]1C[C@@H](Cc2ccccc2)CN1; Trp(5-OH) = N[C@@H](Cc1c[nH]c2ccc(O)cc12)C(=O)O; X7 = O=C([C@H](CCNCc1c[nH]cn1)N[*:1])[*:2]; Oic = O=C(O)[C@@H]1C[C@@H]2CCCC[C@@H]2N1; Phe(4-CN) = N#Cc1ccc(C[C@H](N)C(=O)O)cc1; Pro(cis-4-F) = O=C(O)[C@@H]1C[C@H](F)CN1; Phe(4-F) = N[C@@H](Cc1ccc(F)cc1)C(=O)O; 2Nal = N[C@@H](Cc1ccc2ccccc2c1)C(=O)O; Thz(5,5-Me2) = CC1(C)SCN[C@@H]1C(=O)O; cisHyp = O=C(O)[C@@H]1C[C@H](O)CN1; Hyp = O=C(O)[C@@H]1C[C@@H](O)CN1; Tic = O=C(O)[C@@H]1Cc2ccccc2CN1; MeOCH2CH2OCH2CO = COCCOCC(=O)*; N(Me)CH2CH2OMe = COCCN(C)*; Thz = O=C(O)[C@@H]1CSCN1; Ac5c = NC1(C(=O)O)CCCC1; Dab = NCC[C@H](N)C(=O)O; X10 = N#Cc1ccc(C*)cc1; Aib = CC(C)(N)C(=O)O; CO = O=C([*:1])[*:2]; NHCH2CH2OMe = COCCN*; Bn = c1ccc(C*)cc1

In assay [1] the target is T1, human CCR10 (Homo sapiens, UniProt P46092).
T1 construct: expressed in transfected cells
T1 sequence (P46092 1-362): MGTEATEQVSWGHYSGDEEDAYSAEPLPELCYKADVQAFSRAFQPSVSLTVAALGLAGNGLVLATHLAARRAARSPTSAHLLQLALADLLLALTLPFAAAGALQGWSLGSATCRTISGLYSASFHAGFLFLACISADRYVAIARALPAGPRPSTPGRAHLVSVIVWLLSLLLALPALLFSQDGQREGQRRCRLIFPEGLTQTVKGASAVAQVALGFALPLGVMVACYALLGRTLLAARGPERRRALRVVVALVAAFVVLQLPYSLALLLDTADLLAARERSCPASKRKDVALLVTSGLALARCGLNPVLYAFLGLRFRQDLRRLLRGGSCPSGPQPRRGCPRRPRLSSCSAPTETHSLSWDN
The assay can be described thus: Calcium flux assay (CCR10 antagonism, CCL27 as agonist). The conditions noted are these: CCR10 transfected 300-19 murine pre-B cells; CCL27 30 nM. The class given is cell-based. Here is the method:
(§1) Lyophilized peptides were weighed on a Microbalance (Mettler MX5) and dissolved in aqueous 90% DMSO to a final concentration of 10 mM unless otherwise stated. Stock solutions were kept at +4° C., and protected from light.
(§2) Peptides were assayed for CCR10 antagonism in a calcium flux assay and in a chemotaxis assay using a mouse pre-B cell line 300-19 stably transfected with human CCR10, and with human CCL27 as agonist.
The calcium flux release was assessed using CCR10 transfected 300-19 murine pre-B cells. These cells were labeled as a batch with Calcium4 Reagent (Molecular Devices, Sunnyvale, Calif.) in HBSS buffer for 60 min.
After dispensing 8×10^4 cells in each well of a 384-well black plate, a concentrated solution of the β-hairpin peptidomimetics of this invention in HBSS+0.1% BSA+0.1% DMSO (final concentration) was added to the cells. The entire plate was centrifuged and placed in a Flexstation II (Molecular Devices) automated plate reader. After reading a 20 s baseline, the Flexstation dispensed CCL27 (RnD systems) at a final concentration of 30 nM in HBSS+0.1% BSA onto the cells and calcium flux was measured for an additional 70 s.
Alternatively a FIipR384 (Molecular Devices) was used for read out of the 384-well plates. In this case about 8×10^4 cells were placed in each well, centrifuged, placed in the FlipR and after 5 s of baseline reading, the β-hairpin peptidomimetics in HBSS+0.1% BSA+0.1% DMSO (final concentration) were added. After an incubation time of 5 min, the CCL27 solution was added to the mixture and the calcium flux was measured for 200 s.
The maximum signal was determined from control wells without inhibitor. Percentage of inhibition was calculated from a range of compound concentrations, which were subsequently used to calculate IC50 values (Softmax Pro, Molecular Devices). All steps were carried out at room temperature.

Assay [2] addresses T1, human CCR10. Nature of the assay: Chemotaxis assay (CCR10-transfected 300-19 cells, CCL27 gradient). It is filed as cell-based. The conditions noted are these: CCR10-transfected 300-19 murine pre-B cells; 30 nM CCL27 gradient. As to the method: as §1, §2
The chemotactic response of CCR10-transfected 300-19 murine pre-B cells to a gradient of CCL27 (CTACK) was measured using disposable Transwell® assay plates from Costar (5 μm pore size) according to the protocol of the manufacturer. Briefly, cells were grown under sterile conditions at 37° C. with 5% CO2 in flasks containing RPMI+5% FCS, glutamine, penicillin/streptomycin (all media components were from Life Technologies) and the appropriate selection antibiotics (Puromycin, G418 or Tetracycline). For the assay, cells were pelleted by centrifugation, washed once in Dulbecco's phosphate buffered saline (DPBS), and resuspended to give 1×10^6 cells/ml in RPMI+0.5% bovine serum albumin (BSA). 100 μl of cell suspension was applied to the top of the assay filter. The β-hairpin peptidomimetics, diluted in the same assay medium, were added to both top and bottom chambers. The cells were allowed to migrate for 4-6 hours at 37° C. into the bottom chamber of the assay plate containing 30 nM of CCL27 (RnD systems). Migrated cells were counted using a FACS cytometer (Cytomics FC500, Beckman Coulter). Data normalization was performed using the number of any cells that had migrated in the absence of the β-hairpin peptidomimetic and the number of cells that have randomly migrated in absence of CCL27 [these values were taken as 100% (no inhibitory activity) and 0%, respectively]. From a range of compound concentrations IC50 were determined using Prism5 (GraphPad software).

`COCCOCC(=O)NCC[C@@H]1NC(=O)[C@H](Cc2c[nH]c3ccccc23)NC(=O)C2(CCCC2)NC(=O)[C@H](Cc2c[nH]c3ccccc23)NC(=O)[C@@H]2C[C@@H]3CCCC[C@@H]3N2C(=O)[C@H]2CCCN2C1=O` [Ex. 72, cyclo(-Trp-Cyp-Trp-Dab(MEMCO)-^DPro-Oic-)] (cyclo([Ac5c]W[Dab](MeOCH2CH2OCH2CO)[dP][Oic]W)): the concentration for half-maximal inhibition (IC50) (usually the concentration needed to halve the response being measured) turned out to be 62.8 ± 41.6 nM on human CCR10 [1] and 11.5 nM against human CCR10 [2].
The matching figures for `NCC[C@@H]1NC(=O)[C@H](Cc2c[nH]c3ccccc23)NC(=O)C2(CCCC2)NC(=O)[C@H](Cc2c[nH]c3ccccc23)NC(=O)[C@@H]2C[C@@H](Oc3ccccc3)CN2C(=O)[C@H]2CCCN2C1=O` [compound 52, cyclo(-Trp-Cyp-Trp-Dab-^DPro-Hyp(Ph)-)] (cyclo([Ac5c]W[Dab][dP][Pro(4R-OPh)]W)): 42 ± 25.1 nM and 37 nM.
For `COCCN(C)C(=O)NCC[C@@H]1NC(=O)[C@H](Cc2c[nH]c3ccccc23)NC(=O)C2(CCCC2)NC(=O)[C@H](Cc2c[nH]c3ccccc23)NC(=O)[C@@H]2C[C@@H]3CCCC[C@@H]3N2C(=O)[C@H]2CCCN2C1=O` [Ex. 97, cyclo(-Trp-Cyp-Trp-Dab((MeO(CH2)2)(Me)NCO)-^DPro-Oic-)] (cyclo([Ac5c]W[Dab]([CO-N(Me)CH2CH2OMe])[dP][Oic]W)), the concentration for half-maximal inhibition (IC50) is 8.1 ± 9.1 nM at human CCR10 [1] and 5.6 nM against human CCR10 [2].
`NCC[C@@H]1NC(=O)[C@H](Cc2c[nH]c3ccccc23)NC(=O)C2(CCCC2)NC(=O)[C@H](Cc2c[nH]c3ccccc23)NC(=O)[C@@H]2C[C@H](OCc3ccccc3)CN2C(=O)[C@H]2CCCN2C1=O` [Ex. 51, cyclo(-Trp-Cyp-Trp-Dab-^DPro-(4S)-Hyp(Bn)-)] (cyclo([Ac5c]W[Dab][dP][cisHyp](Bn)W)): the IC50 at human CCR10 [1] came out at 260 ± 154 nM; at human CCR10 [2], 60.1 nM.
On the same counts, the results for `NCC[C@@H]1NC(=O)[C@H](Cc2c[nH]c3ccccc23)NC(=O)C2(CCCC2)NC(=O)[C@H](Cc2c[nH]c3ccccc23)NC(=O)[C@@H]2CSCN2C(=O)[C@H]2CCCN2C1=O` [compound 6, cyclo(-Trp-Cyp-Trp-Dab-^DPro-Thz-)] (cyclo([Ac5c]W[Dab][dP][Thz]W)) are 134 ± 73.3 nM and 19.6 nM.
On the same counts, the results for `O=C1NC2(CCCC2)C(=O)N[C@@H](Cc2c[nH]c3ccccc23)C(=O)N[C@@H](CCNCc2c[nH]cn2)C(=O)N2CCC[C@@H]2C(=O)N2[C@@H](C[C@@H]3CCCC[C@@H]32)C(=O)N[C@H]1Cc1c[nH]c2ccccc12` [Ex. 106, cyclo(-Trp-Cyp-Trp-Dab(A55)-^DPro-Oic-)] (cyclo([Ac5c]W[X7][dP][Oic]W)) are 12.2 ± 3.8 nM and 4.8 nM.
On the same counts, the results for `NCC[C@@H]1NC(=O)[C@H](Cc2c[nH]c3ccccc23)NC(=O)C2(CCCC2)NC(=O)[C@H](Cc2c[nH]c3ccccc23)NC(=O)[C@@H]2C[C@@H](Cc3ccccc3)CN2C(=O)[C@H]2CCCN2C1=O` [Ex. 38, cyclo(-Trp-Cyp-Trp-Dab-^DPro-Pro((4R)Bn)-)] (cyclo([Ac5c]W[Dab][dP][Pro(4R-Bn)]W)) are 26.1 ± 8.1 nM and 2.3 nM.
For `COCCNC(=O)NCC[C@@H]1NC(=O)[C@H](Cc2c[nH]c3ccccc23)NC(=O)C2(CCCC2)NC(=O)[C@H](Cc2c[nH]c3ccccc23)NC(=O)[C@@H]2C[C@@H]3CCCC[C@@H]3N2C(=O)[C@H]2CCCN2C1=O` [Ex. 73, cyclo(-Trp-Cyp-Trp-Dab(MeO(CH2)2NHCO)-^DPro-Oic-)] (cyclo([Ac5c]W[Dab]([CO-NHCH2CH2OMe])[dP][Oic]W)), the values for the IC50 on human CCR10 [1] and against human CCR10 [2] were 24.2 ± 24.5 nM and 5.3 nM, respectively.
The matching figures for `NCC[C@@H]1NC(=O)[C@H](Cc2c[nH]c3ccccc23)NC(=O)C2(CCCC2)NC(=O)[C@H](Cc2c[nH]c3ccccc23)NC(=O)[C@@H]2C[C@@H](Cc3ccc(Br)cc3)CN2C(=O)[C@H]2CCCN2C1=O` [compound 39, cyclo(-Trp-Cyp-Trp-Dab-^DPro-Pro((4R)4BrBn)-)] (cyclo([Ac5c]W[Dab][dP][X1]W)): 15.8 ± 10.3 nM and 9 nM.
The matching figures for `N#Cc1ccc(CO[C@@H]2C[C@H]3C(=O)N[C@@H](Cc4c[nH]c5ccccc45)C(=O)NC4(CCCC4)C(=O)N[C@@H](Cc4c[nH]c5ccccc45)C(=O)N[C@@H](CCN)C(=O)N4CCC[C@@H]4C(=O)N3C2)cc1` [compound 53, cyclo(-Trp-Cyp-Trp-Dab-^DPro-Hyp(4CNBn)-)] (cyclo([Ac5c]W[Dab][dP][Hyp](X10)W)): 48.9 ± 40 nM and 143 nM.
On the same counts, the results for `CC1(C)SCN2C(=O)[C@H]3CCCN3C(=O)[C@H](CCCNC(=N)N)NC(=O)[C@H](Cc3c[nH]c4ccccc34)NC(=O)C3(CCCC3)NC(=O)[C@H](Cc3c[nH]c4ccc(O)cc34)NC(=O)[C@@H]21` [Ex. 29, cyclo(-Trp(5OH)-Cyp-Trp-Arg-^DPro-Thz(5,5Me2)-)] (cyclo([Ac5c]WR[dP][Thz(5,5-Me2)][Trp(5-OH)])) are 214 ± 106 nM and 109 nM.
In the case of `N#Cc1ccc(C[C@@H]2NC(=O)[C@@H]3C[C@@H](OCc4ccccc4)CN3C(=O)[C@H]3CCCN3C(=O)[C@H](CO)NC(=O)[C@H](Cc3ccc(F)cc3)NC(=O)C3(CCCC3)NC2=O)cc1` [compound 44, cyclo(-Phe(4CN)-Cyp-Phe(4F)-Ser-^DPro-Hyp(Bn)-)] (cyclo([Ac5c][Phe(4-F)]S[dP][Hyp](Bn)[Phe(4-CN)])), the figures for the IC50 at human CCR10 [1] and at human CCR10 [2] were 1.9 ± 2.1 nM and 13.5 nM, respectively.
Consider `NCC[C@@H]1NC(=O)[C@H](Cc2c[nH]c3ccccc23)NC(=O)C2(CCCC2)NC(=O)[C@H](Cc2c[nH]c3ccccc23)NC(=O)[C@@H]2C[C@H](F)CN2C(=O)[C@H]2CCCN2C1=O` [Ex. 4, cyclo(-Trp-Cyp-Trp-Dab-^DPro-Pro((4S)F)—)] (cyclo([Ac5c]W[Dab][dP][Pro(cis-4-F)]W)), for which the IC50 at human CCR10 [1] was 860 ± 382 nM; at human CCR10 [2] it was 42 nM.
In the case of `CC1(C)NC(=O)[C@H](Cc2c[nH]c3ccccc23)NC(=O)[C@@H]2Cc3ccccc3CN2C(=O)[C@H]2CCCN2C(=O)[C@H](CCN)NC(=O)[C@H](Cc2c[nH]c3ccccc23)NC1=O` [Ex. 2, cyclo(-Trp-Aib-Trp-Dab-^DPro-Tic-)] (cyclo([Aib]W[Dab][dP][Tic]W)), the IC50 on human CCR10 [1] was 200 ± 56.5 nM; at human CCR10 [2], 21.6 nM.
The matching figures for `NC(=O)CC[C@@H]1NC(=O)[C@H](Cc2c[nH]c3ccccc23)NC(=O)C2(CCCC2)NC(=O)[C@H](Cc2c[nH]c3ccc(O)cc23)NC(=O)[C@@H]2CSCN2C(=O)[C@H]2CCCN2C1=O` [Ex. 7, cyclo(-Trp(5OH)-Cyp-Trp-Gln-^DPro-Thz-)] (cyclo([Trp(5-OH)][Ac5c]WQ[dP][Thz])): 144 ± 84.1 nM and 3.1 nM.
For the compound `NC(=O)CC[C@@H]1NC(=O)[C@H](Cc2c[nH]c3ccccc23)NC(=O)C2(CCCC2)NC(=O)[C@H](Cc2ccc3ccccc3c2)NC(=O)[C@@H]2Cc3ccccc3CN2C(=O)[C@H]2CCCN2C1=O` [Ex. 9, cyclo(-2NaI-Cyp-Trp-Gln-^DPro-Tic-)] (cyclo([2Nal][Ac5c]WQ[dP][Tic])), the half-inhibitory concentration (IC50) at human CCR10 [1] was found to be 9.2 ± 3.6 nM; at human CCR10 [2], 2 nM.
